According to US20250230193A1, “CYCLIC COMPOUND HAVING SELECTIVE KRAS INHIBITORY EFFECT ON HRAS AND NRAS” (CHUGAI SEIYAKU KABUSHIKI KAISHA, priority 2022, published 2025):
Where a SMILES comes first, the peptide text is derived from it. Bridges are numbered along the chain shown (N, C = ends). [ ]: non-standard residue; d: D form. The star is where a group is joined. hPhe(3-Cl-4-CF3) = N[C@@H](CCc1ccc(C(F)(F)F)c(Cl)c1)C(=O)O; NPrPhe(4-CF3) = CCCN[C@@H](Cc1ccc(C(F)(F)F)cc1)C(=O)O; NMeGly(cPent) = CN[C@H](C(=O)O)C1CCCC1; Pro(4,4-F2) = O=C(O)[C@@H]1CC(F)(F)CN1; Hyp = O=C(O)[C@@H]1C[C@@H](O)CN1; NMeL = CN[C@@H](CC(C)C)C(=O)O; Morpholide = C1CN(*)CCO1; Ac5c = NC1(C(=O)O)CCCC1; Aze = O=C(O)[C@@H]1CCN1; Ac4c = NC1(C(=O)O)CCC1; NEtG = CCNCC(=O)O; Sar = CNCC(=O)O

Assays:
[1] = biological target: GDP-bound NRAS wild-type protein (Homo sapiens, UniProt P01111); experiment: Binding to NRAS by surface plasmon resonance (SPR), Single Cycle Kinetics; settings: KD ratio NRAS/KRAS, SPR
[2] = biological target: GDP-bound HRAS wild-type protein (Homo sapiens, UniProt P01112); experiment: Binding to HRAS by surface plasmon resonance (SPR), Single Cycle Kinetics; settings: KD ratio HRAS/KRAS, SPR
Chain of GDP-bound HRAS wild-type protein (P01112 whole entry): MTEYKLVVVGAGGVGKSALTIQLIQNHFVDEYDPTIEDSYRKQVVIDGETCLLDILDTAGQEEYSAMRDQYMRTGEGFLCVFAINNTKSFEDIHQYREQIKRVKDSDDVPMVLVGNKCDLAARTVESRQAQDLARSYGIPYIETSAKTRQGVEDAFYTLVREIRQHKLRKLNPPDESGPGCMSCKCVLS

Chain of GDP-bound NRAS wild-type protein (P01111 whole entry): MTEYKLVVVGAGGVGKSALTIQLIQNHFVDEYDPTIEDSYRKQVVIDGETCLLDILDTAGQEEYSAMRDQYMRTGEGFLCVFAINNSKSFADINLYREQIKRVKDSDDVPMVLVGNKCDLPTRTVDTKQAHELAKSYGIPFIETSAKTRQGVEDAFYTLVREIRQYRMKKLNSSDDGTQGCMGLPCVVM

Row | SMILES | NRAS/KRAS (ratio of KD for GDP-bound NRAS wild-type to KD for KRAS) [1] | HRAS/KRAS (ratio of KD for GDP-bound HRAS wild-type to KD for KRAS) [2]
1 | CCCN1C(=O)CN(C)C(=O)CNC(=O)[C@H]([C@@H](C)CC)NC(=O)[C@H](CC(C)C)N(C)C(=O)C[C@@H](C(=O)N2CCOCC2)NC(=O)[C@H](C2CCCC2)N(C)C(=O)C2(CCC2)NC(=O)[C@@H]2CC(F)(F)CN2C(=O)[C@H](CCc2ccc(C(F)(F)F)c(Cl)c2)NC(=O)CN(C)C(=O)[C@@H]1Cc1ccc(C(F)(F)F)cc1 [PP0328] ([NMeL]IG[Sar][NPrPhe(4-CF3)][Sar][hPhe(3-Cl-4-CF3)][Pro(4,4-F2)][Ac4c][NMeGly(cPent)]D-Morpholide; lactam N-11) | B (a compound having 3 or more and less than 10 is denoted as B) | B (a compound having 3 or more and less than 10 is denoted as B)
2 | CCCN1C(=O)CN(C)C(=O)CNC(=O)[C@H]([C@@H](C)CC)NC(=O)[C@H](CC(C)C)N(C)C(=O)C[C@@H](C(=O)N2CCOCC2)NC(=O)[C@H](C2CCCC2)N(C)C(=O)C2(CCCC2)NC(=O)[C@@H]2C[C@@H](OCC)CN2C(=O)[C@H](CCc2ccc(C(F)(F)F)c(Cl)c2)NC(=O)CN(C)C(=O)[C@@H]1Cc1ccc(C(F)(F)F)cc1 [PP0329] ([NMeL]IG[Sar][NPrPhe(4-CF3)][Sar][hPhe(3-Cl-4-CF3)][Hyp](Et)[Ac5c][NMeGly(cPent)]D-Morpholide; lactam N-11) | B (a compound having 3 or more and less than 10 is denoted as B) | C (A compound having a KD ratio of 0.1 or more and less than 3 is denoted as C)
3 | CCCN1C(=O)CN(C)C(=O)CNC(=O)[C@H]([C@@H](C)CC)NC(=O)[C@H](CC(C)C)N(C)C(=O)C[C@@H](C(=O)N2CCOCC2)NC(=O)[C@H](C2CCCC2)N(C)C(=O)C2(CCC2)NC(=O)[C@@H]2C[C@@H](OCC)CN2C(=O)[C@H](CCc2ccc(C(F)(F)F)c(Cl)c2)NC(=O)CN(C)C(=O)[C@@H]1Cc1ccc(C(F)(F)F)cc1 [PP0330] ([NMeL]IG[Sar][NPrPhe(4-CF3)][Sar][hPhe(3-Cl-4-CF3)][Hyp](Et)[Ac4c][NMeGly(cPent)]D-Morpholide; lactam N-11) | B (a compound having 3 or more and less than 10 is denoted as B) | C (A compound having a KD ratio of 0.1 or more and less than 3 is denoted as C)
4 | CCCN1C(=O)CN(C)C(=O)CN(CC)C(=O)[C@H]([C@@H](C)CC)NC(=O)[C@H](CC(C)C)N(C)C(=O)C[C@@H](C(=O)N2CCOCC2)NC(=O)[C@H](C2CCCC2)N(C)C(=O)C2(CCCC2)NC(=O)[C@@H]2CCCN2C(=O)[C@H](CCc2ccc(C(F)(F)F)c(Cl)c2)NC(=O)CN(C)C(=O)[C@@H]1Cc1ccc(C(F)(F)F)cc1 [PP0331] ([NMeL]I[NEtG][Sar][NPrPhe(4-CF3)][Sar][hPhe(3-Cl-4-CF3)]P[Ac5c][NMeGly(cPent)]D-Morpholide; lactam N-11) | B (a compound having 3 or more and less than 10 is denoted as B) | B (a compound having 3 or more and less than 10 is denoted as B)
5 | CCCN1C(=O)CN(C)C(=O)CN(CC)C(=O)[C@H]([C@@H](C)CC)NC(=O)[C@H](CC(C)C)N(C)C(=O)C[C@@H](C(=O)N2CCOCC2)NC(=O)[C@H](C2CCCC2)N(C)C(=O)C2(CCC2)NC(=O)[C@@H]2CCCN2C(=O)[C@H](CCc2ccc(C(F)(F)F)c(Cl)c2)NC(=O)CN(C)C(=O)[C@@H]1Cc1ccc(C(F)(F)F)cc1 [PP0332] ([NMeL]I[NEtG][Sar][NPrPhe(4-CF3)][Sar][hPhe(3-Cl-4-CF3)]P[Ac4c][NMeGly(cPent)]D-Morpholide; lactam N-11) | B (a compound having 3 or more and less than 10 is denoted as B) | B (a compound having 3 or more and less than 10 is denoted as B)
6 | CCCN1C(=O)CN(C)C(=O)CN(CC)C(=O)[C@H]([C@@H](C)CC)NC(=O)[C@H](CC(C)C)N(C)C(=O)C[C@@H](C(=O)N2CCOCC2)NC(=O)[C@H](C2CCCC2)N(C)C(=O)C2(CCCC2)NC(=O)[C@@H]2CC(F)(F)CN2C(=O)[C@H](CCc2ccc(C(F)(F)F)c(Cl)c2)NC(=O)CN(C)C(=O)[C@@H]1Cc1ccc(C(F)(F)F)cc1 [PP0333] ([NMeL]I[NEtG][Sar][NPrPhe(4-CF3)][Sar][hPhe(3-Cl-4-CF3)][Pro(4,4-F2)][Ac5c][NMeGly(cPent)]D-Morpholide; lactam N-11) | B (a compound having 3 or more and less than 10 is denoted as B) | C (A compound having a KD ratio of 0.1 or more and less than 3 is denoted as C)
7 | CCCN1C(=O)CN(C)C(=O)CN(CC)C(=O)[C@H]([C@@H](C)CC)NC(=O)[C@H](CC(C)C)N(C)C(=O)C[C@@H](C(=O)N2CCOCC2)NC(=O)[C@H](C2CCCC2)N(C)C(=O)C2(CCC2)NC(=O)[C@@H]2CC(F)(F)CN2C(=O)[C@H](CCc2ccc(C(F)(F)F)c(Cl)c2)NC(=O)CN(C)C(=O)[C@@H]1Cc1ccc(C(F)(F)F)cc1 [PP0334] ([NMeL]I[NEtG][Sar][NPrPhe(4-CF3)][Sar][hPhe(3-Cl-4-CF3)][Pro(4,4-F2)][Ac4c][NMeGly(cPent)]D-Morpholide; lactam N-11) | B (a compound having 3 or more and less than 10 is denoted as B) | C (A compound having a KD ratio of 0.1 or more and less than 3 is denoted as C)
8 | CCCN1C(=O)CN(C)C(=O)CN(CC)C(=O)[C@H]([C@@H](C)CC)NC(=O)[C@H](CC(C)C)N(C)C(=O)C[C@@H](C(=O)N2CCOCC2)NC(=O)[C@H](C2CCCC2)N(C)C(=O)C2(CCCC2)NC(=O)[C@@H]2C[C@@H](OCC)CN2C(=O)[C@H](CCc2ccc(C(F)(F)F)c(Cl)c2)NC(=O)CN(C)C(=O)[C@@H]1Cc1ccc(C(F)(F)F)cc1 [PP0335] ([NMeL]I[NEtG][Sar][NPrPhe(4-CF3)][Sar][hPhe(3-Cl-4-CF3)][Hyp](Et)[Ac5c][NMeGly(cPent)]D-Morpholide; lactam N-11) | B (a compound having 3 or more and less than 10 is denoted as B) | C (A compound having a KD ratio of 0.1 or more and less than 3 is denoted as C)
9 | CCCN1C(=O)CN(C)C(=O)CN(CC)C(=O)[C@H]([C@@H](C)CC)NC(=O)[C@H](CC(C)C)N(C)C(=O)C[C@@H](C(=O)N2CCOCC2)NC(=O)[C@H](C2CCCC2)N(C)C(=O)C2(CCC2)NC(=O)[C@@H]2C[C@@H](OCC)CN2C(=O)[C@H](CCc2ccc(C(F)(F)F)c(Cl)c2)NC(=O)CN(C)C(=O)[C@@H]1Cc1ccc(C(F)(F)F)cc1 [PP0336] ([NMeL]I[NEtG][Sar][NPrPhe(4-CF3)][Sar][hPhe(3-Cl-4-CF3)][Hyp](Et)[Ac4c][NMeGly(cPent)]D-Morpholide; lactam N-11) | B (a compound having 3 or more and less than 10 is denoted as B) | B (a compound having 3 or more and less than 10 is denoted as B)
10 | CCCN1C(=O)CN(C)C(=O)[C@@H]2CCN2C(=O)[C@H]([C@@H](C)CC)NC(=O)[C@H](CC(C)C)N(C)C(=O)C[C@@H](C(=O)N2CCOCC2)NC(=O)[C@H](C2CCCC2)N(C)C(=O)C2(CCCC2)NC(=O)[C@@H]2CCCN2C(=O)[C@H](CCc2ccc(C(F)(F)F)c(Cl)c2)NC(=O)CN(C)C(=O)[C@@H]1Cc1ccc(C(F)(F)F)cc1 [PP0337] ([NMeL]I[Aze][Sar][NPrPhe(4-CF3)][Sar][hPhe(3-Cl-4-CF3)]P[Ac5c][NMeGly(cPent)]D-Morpholide; lactam N-11) | B (a compound having 3 or more and less than 10 is denoted as B) | B (a compound having 3 or more and less than 10 is denoted as B)
11 | CCCN1C(=O)CN(C)C(=O)[C@@H]2CCN2C(=O)[C@H]([C@@H](C)CC)NC(=O)[C@H](CC(C)C)N(C)C(=O)C[C@@H](C(=O)N2CCOCC2)NC(=O)[C@H](C2CCCC2)N(C)C(=O)C2(CCC2)NC(=O)[C@@H]2CCCN2C(=O)[C@H](CCc2ccc(C(F)(F)F)c(Cl)c2)NC(=O)CN(C)C(=O)[C@@H]1Cc1ccc(C(F)(F)F)cc1 [PP0338] ([NMeL]I[Aze][Sar][NPrPhe(4-CF3)][Sar][hPhe(3-Cl-4-CF3)]P[Ac4c][NMeGly(cPent)]D-Morpholide; lactam N-11) | B (a compound having 3 or more and less than 10 is denoted as B) | B (a compound having 3 or more and less than 10 is denoted as B)
12 | CCCN1C(=O)CN(C)C(=O)[C@@H]2CCN2C(=O)[C@H]([C@@H](C)CC)NC(=O)[C@H](CC(C)C)N(C)C(=O)C[C@@H](C(=O)N2CCOCC2)NC(=O)[C@H](C2CCCC2)N(C)C(=O)C2(CCCC2)NC(=O)[C@@H]2CC(F)(F)CN2C(=O)[C@H](CCc2ccc(C(F)(F)F)c(Cl)c2)NC(=O)CN(C)C(=O)[C@@H]1Cc1ccc(C(F)(F)F)cc1 [PP0339] ([NMeL]I[Aze][Sar][NPrPhe(4-CF3)][Sar][hPhe(3-Cl-4-CF3)][Pro(4,4-F2)][Ac5c][NMeGly(cPent)]D-Morpholide; lactam N-11) | B (a compound having 3 or more and less than 10 is denoted as B) | B (a compound having 3 or more and less than 10 is denoted as B)
13 | CCCN1C(=O)CN(C)C(=O)[C@@H]2CCN2C(=O)[C@H]([C@@H](C)CC)NC(=O)[C@H](CC(C)C)N(C)C(=O)C[C@@H](C(=O)N2CCOCC2)NC(=O)[C@H](C2CCCC2)N(C)C(=O)C2(CCC2)NC(=O)[C@@H]2CC(F)(F)CN2C(=O)[C@H](CCc2ccc(C(F)(F)F)c(Cl)c2)NC(=O)CN(C)C(=O)[C@@H]1Cc1ccc(C(F)(F)F)cc1 [PP0340] ([NMeL]I[Aze][Sar][NPrPhe(4-CF3)][Sar][hPhe(3-Cl-4-CF3)][Pro(4,4-F2)][Ac4c][NMeGly(cPent)]D-Morpholide; lactam N-11) | B (a compound having 3 or more and less than 10 is denoted as B) | B (a compound having 3 or more and less than 10 is denoted as B)
